Test results as given in PubChem BioAssay (NCI).
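Each compound was tested at five concentrations against cells in 96-well plates for 48 hours. GI50 marks 50% less growth. TGI denotes the concentration required for complete inhibition of growth.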

Legend:
Test in all cases: NCI tumour cell line growth inhibition, 48 h
HCT-116 colon = system: HCT-116 colon
COLO 205 colon = system: COLO 205 colon
MDA-MB-231 breast = system: MDA-MB-231 breast
OVCAR-8 ovarian = system: OVCAR-8 ovarian
LOX IMVI melanoma = system: LOX IMVI melanoma
SF-539 CNS = system: SF-539 CNS
KM12 colon = system: KM12 colon
K-562 leukemia = system: K-562 leukemia
MALME-3M melanoma = system: MALME-3M melanoma
RPMI-8226 leukemia = system: RPMI-8226 leukemia

SMILES | TGI (HCT-116 colon) [µM] | TGI (COLO 205 colon) [µM] | TGI (MDA-MB-231 breast) [µM] | TGI (OVCAR-8 ovarian) [µM] | TGI (LOX IMVI melanoma) [µM] | TGI (SF-539 CNS) [µM] | TGI (KM12 colon) [µM] | TGI (K-562 leukemia) [µM] | TGI (MALME-3M melanoma) [µM] | TGI (RPMI-8226 leukemia) [µM] | GI50 (HCT-116 colon) [µM] | GI50 (COLO 205 colon) [µM] | GI50 (OVCAR-8 ovarian) [µM] | GI50 (LOX IMVI melanoma) [µM] | GI50 (SF-539 CNS) [µM] | GI50 (MALME-3M melanoma) [µM] | GI50 (RPMI-8226 leukemia) [µM]
COc1cc(/C=C2\S/C(=N/Nc3nc(-c4ccc(Br)cc4)cs3)NC2=O)cc(OC)c1OC | 17.2 | 71.3 | 47.6 | 29.6 | 33.2 | 29.1 | 32.8 | – | – | – | – | – | – | – | – | – | –
CNS(=O)(=O)NNS(=O)(=O)c1ccc2ccccc2c1 | > 100 | > 100 | – | > 100 | > 100 | > 100 | > 100 | > 100 | > 100 | > 100 | – | – | – | – | – | – | –
CC(=O)Nc1ccc(-c2nnc(SCC(=O)Nc3ccc([N+](=O)[O-])cc3)o2)cc1 | 25 | 27.3 | – | 29.9 | 18.1 | 39.2 | 27.7 | > 100 | 27 | > 100 | – | – | – | – | – | – | –
CCC[C@@H](O)C[C@@H]1CCC[C@H](C[C@@H](O)CC)N1C | > 100 | > 100 | > 100 | > 100 | > 100 | > 100 | > 100 | > 100 | – | > 100 | – | – | – | – | – | – | –
O=C1OCC(O)=C1C(c1ccc(Cl)cc1)c1cc2c(cc1O)OCO2 (stereo not drawn) | > 100 | > 100 | > 100 | – | > 100 | > 100 | > 100 | > 100 | > 100 | – | – | – | – | – | – | – | –
O=C1CCC(=O)N1n1c(Cc2ccccc2)n[nH]c1=O | > 100 | > 100 | > 100 | > 100 | > 100 | – | 46.4 | > 100 | > 100 | > 100 | – | – | – | – | – | – | –
O=S1(=O)NC(=NCc2c[nH]c3ccccc23)N(c2ccccc2)c2ccncc21 | > 100 | > 100 | > 100 | > 100 | > 100 | > 100 | > 100 | > 100 | > 100 | – | – | – | – | – | – | – | –
O=C(Nc1ccc(C2=NCCN2)cc1)c1cncc(C(=O)Nc2ccc(C3=NCCN3)cc2)c1 | > 100 | > 100 | – | > 100 | > 100 | > 100 | > 100 | > 100 | > 100 | > 100 | – | – | – | – | – | – | –
CCOC(=O)C(NC(C)=O)(Nc1ccc(F)cc1)C(F)(F)F (stereo not drawn) | > 100 | > 100 | > 100 | > 100 | > 100 | > 100 | > 100 | > 100 | – | > 100 | – | – | – | – | – | – | –
Cc1ccccc1-n1c(=O)c2ncn(CCCl)c2n(-c2ccccc2C)c1=S | > 100 | > 100 | > 100 | > 100 | > 100 | > 100 | > 100 | > 100 | – | > 100 | – | – | – | – | – | – | –
CC(=O)O[C@H]1C(=O)[C@]2(C)[C@@H](OC(=O)OCCC(O)CO)C[C@H]3OC[C@@]3(OC(C)=O)[C@H]2[C@H](OC(=O)c2ccccc2)[C@]2(O)C[C@H](OC(=O)[C@H](O)[C@@H](NC(=O)c3ccccc3)c3ccccc3)C(C)=C1C2(C)C (stereo partly drawn) | 5.65 | – | 3.7 | – | 20.4 | 0.0297 | – | > 100 | 16.3 | – | – | – | – | – | – | – | –
COc1ccc(N2C(=O)C3c4[nH]c5ccccc5c4C4CCC(C(C)(C)C)CC4C3C2=O)c(C)c1 (stereo not drawn) | > 100 | > 100 | > 100 | > 100 | – | > 100 | > 100 | > 100 | – | > 100 | – | – | – | – | – | – | –
Cc1cc(N(CCC#N)CCC#N)ccc1/C(N=Nc1ccc(Cl)cc1)=N\NC(=O)c1ccccc1 | > 100 | 94.1 | > 100 | > 100 | – | 50.8 | > 100 | > 100 | > 100 | > 100 | – | – | – | – | – | – | –
COc1ccc(CNc2nc(NCc3ccc(OC)c(OC)c3)nc(NC3CCCCC3)n2)cc1 | > 100 | 21 | > 100 | > 100 | > 100 | 8.46 | 17 | > 100 | > 100 | – | – | – | – | – | – | – | –
O=C1CCC23CC(C=CC=C12)n1c(=O)n(-c2ccccc2)c(=O)n13 (stereo not drawn) | > 100 | > 100 | – | > 100 | > 100 | > 100 | > 100 | > 100 | > 100 | > 100 | – | – | – | – | – | – | –
CCN(CC)CCC(=O)Nc1ccc2c(c1)C(=O)c1ccc(NC(=O)CCN(CC)CC)cc1C2=O | 10.1 | 14.4 | – | 18 | 6.19 | 15.3 | 4.57 | 14.8 | – | 19.9 | – | – | – | – | – | – | –
N.N.N.N.O=[N+]([O-])[O-].[Co+3].[N-]=[N+]=[N-].[N-]=[N+]=[N-] | > 100 | > 100 | – | > 100 | > 100 | > 100 | > 100 | > 100 | > 100 | > 100 | – | – | – | – | – | – | –
CC(=O)NC1=C(NCCC(C)C)C(=O)c2ccccc2C1=O | > 50 | > 50 | – | > 50 | > 50 | > 50 | > 50 | > 50 | > 50 | – | – | – | – | – | – | – | –
O=C([O-])CC(=O)[O-].O=C([O-])CC(=O)[O-].[K+].[Pd+2] | > 100 | > 100 | – | > 100 | > 100 | > 100 | – | – | > 100 | > 100 | > 100 | > 100 | > 100 | > 100 | > 100 | > 100 | > 100
Cc1cccc2c(=O)cc(-c3ccccc3)[nH]c12 | > 100 | 51.5 | – | – | > 100 | 37.1 | – | > 100 | > 100 | > 100 | – | – | – | – | – | – | –
COc1cc([C@@H]2c3cc4c(cc3[C@@H](Nc3ccc([N+](=O)[O-])cc3C(=O)c3ccccc3)[C@H]3COC(=O)[C@H]23)OCO4)cc(OC)c1OC | > 100 | – | – | > 100 | > 100 | 0.502 | > 100 | > 100 | > 100 | > 100 | – | – | – | – | – | – | –
Cc1ccsc1/C=N/Nc1ncccn1 | > 100 | > 100 | > 100 | > 100 | > 100 | – | > 100 | > 100 | > 100 | > 100 | – | – | – | – | – | – | –
Cc1cn(C2CC(n3cc(Cn4cc(I)c(=O)[nH]c4=O)nn3)C(CO)O2)c(=O)[nH]c1=O (stereo not drawn) | > 100 | > 100 | > 100 | > 100 | – | > 100 | > 100 | – | – | > 100 | – | – | – | – | – | – | –
